Source: patent publication US7671058B2, “N-(3,4-disubstituted phenyl) salicylamide derivatives” (Institute of Medicinal Molecular Design, Inc., priority 2006, dated 2010)
pIC50: −log10 of the molar value.

What was measured:
NF-κB = NF-κB inhibition test: pNFκB-Luc luciferase reporter in U2-OS cells stimulated with human TNF α; format: cell-based; details: human TNF α 10 ng/mL; for Inhibition Rate of NF-κB (%): compound 2 μM, 8 hours; for pIC50: from inhibition rates at 1, 0.1, 0.01 and 0.001 μM, read-out: IC50 against activation of NF-κB
Protocol: (1) Transfection to U2-OS Cells and Inhibition Test of Activation
U2-OS cells were seeded at 2×10^4 cells/well in 96-well culture plate, and transfection was carried out using FuGENE 6 Transfection Reagent (Roche Diagnostics GmbH). The procedures of the transfection are shown below.
11 μg of reporter plasmid (pNFκB-Luc; Stratagene Corporation) and 1.1 μg of pCMV β (CLONTECH Laboratories, Inc.) were mixed in 1.1 mL of OPTI-MEM I medium (GIBCO BRL) (solution (A)).
[…] of FuGENE 6 Transfection Reagent was mixed in 1.1 mL of OPTI-MEM I medium (solution (B)).
(§1) The above solution (A) and solution (B) were mixed, let them stand for 15 minutes at room temperature, then, 8.8 mL of OPTI-MEM I medium was added and diluted.
To this transfection solution, U2-OS cell suspension (11 mL) in McCoy's 5A medium (GIBCO BRL) containing 10% Fetal Bovine Serum (FBS; GIBCO BRL) at […] was added and well mixed.
(§2) 0.2 mL of the above solution was dispensed into each well of 96-well culture plates, and incubated for 24 hours (37° C., 5% CO2).
After removal of 50 μL of medium from each well, 50 μL of McCoy's 5A medium (serum-free) containing compound of the present application was added to a final concentration of 0.01˜2 μM (0.001, 0.01, 0.1, 0.5, 1 or 2 μM), and the plates were incubated for 2 hours (37° C., 5% CO2).
10 μL of the McCoy's 5A medium (serum-free) containing human TNF α (PEPROTECH EC Ltd.) was added to each well to achieve a final concentration of 10 ng/mL, and incubated for 8 hours (37° C., 5% CO2).
(§3) Medium was completely removed and plates were preserved at −80° C. until measurements.
(§4) Cell lysates were prepared by adding 40 μL of Passive Lysis Buffer (Promega Corporation) to each well.
(§5) 10 μL of each lysate was transferred to 96-well white plates. 50 μL of PicaGene L.T.2.0 (TOYO INK MFG. CO., LTD.) was added to each well, then, luminescence was measured after leaving for 10 minutes at room temperature.
(§6) 10 μL of each lysate was transferred to 96-well black plates. 100 μL of Z Buffer (preparation method will be explained later) was added to each well, and fluorescence was measured immediately.
(§7) 10 μL of each lysate was transferred to 96-well clear plates. 200 μL of protein assay reagent prepared from the BCA Protein Assay Kit (Pierce Biotechnology, Inc.) was added to each well, and, absorbance was measured after incubation for 30 minutes at 37° C.
(§8) For measurements of luminescence, fluorescence, and absorbance, microplate reader GENios (TECAN G.M.B.H.) was used.
(3) Calculation of Inhibition Rate
Luminescence values that show the degree of activation by TNF α stimulation were normalized by β-gal values that show transfection efficiency. Using the normalized values, the following calculation was carried out using the luminescence values that increased by TNF α stimulation. Inhibition Rate(%)=[…] E: In the presence of the compound of the present application, increased luminescence values by TNF α stimulation C: Without the presence of the compound of the present application, increased luminescence values by TNF α, stimulation
The values of protein assay by BCA reagent were used for a simple assessment of cytotoxicity, and not used for the calculation of inhibition rates.
NF-κB Inhibition Rates are shown below. The values in parentheses in the table represent the concentration of the compound of the present application.
NF-κB inhibition rates where the concentrations of the compound of the present application were 1, 0.1, 0.01 and 0.001 μM were calculated, and the 50% inhibitory concentrations (IC50) of the compounds of the present application against activation of NF-κB were evaluated.

STAT6 = STAT6 inhibition test: (GLS)x8/pTA-Luc luciferase reporter in U2-OS cells stimulated with human IL-4; format: cell-based; details: human IL-4 40 ng/mL; for Inhibition Rate of STAT6 (%): compound 2 μM, 8 hours; for pIC50: from inhibition rates at 1, 0.1, 0.01 and 0.001 μM, read-out: IC50 against activation of STAT6
From the text: (1) Construction of a STAT6 Reporter Plasmid
The Oligonucleotides (SEQ ID: 1, 2) containing two copies of STAT6 binding sequences (refer to J. Biol. Chem., vol. 276, No. 9, pp. 6675-6688 (2001).) were synthesized, and integrated into the enhancer region of the reporter plasmid pTA-Luc Vector (CLONTECH Laboratories, Inc.) at the restriction enzyme BgIII site.
When the oligonucleotide is integrated in positive direction into the plasmid, the upstream BglII site is not reconstructed. Therefore, STAT6 binding sequences can be increased by repeating integration of the oligonucleotide at the restriction enzyme BglII site.
In the present test, a plasmid including eight integrated STAT6 binding sequences was constructed and provided for the reporter assay as (GLS)x8/pTA-Luc. Confirmation of the sequences was carried out using an automated fluorescence sequencer (Model 310 (Applied Biosystems)).
(2) Transfection into U2-OS Cells and Inhibition Test for STAT6 Activation
U2-OS cells were seeded to at 2×10^4 cells/well in 96-well culture plates, and transfection was carried out using FuGENE 6 Transfection Reagent (Roche Diagnostics GmbH). The procedures of the transfection are shown below.
11 μg of reporter plasmid ((GLS)x8/pTA-Luc) and 1.1 μg of pCMV β (CLONTECH Laboratories, Inc.) were mixed in 1.1 mL of OPTI-MEM I medium (GIBCO BRL) (solution (A)).
33 μL of FuGENE 6 Transfection Reagent was mixed in 1.1 mL of OPTI-MEM I medium (solution (B)).
as §1
To this transfection solution, U2-OS cell suspension (11 mL) in McCoy's 5A medium (GIBCO BRL) containing 10% Fetal Bovine Serum (FBS; GIBCO BRL) at 2×10^5 cells/mL was added and well mixed.
as §2
After removal of 50 μL of medium from each well, 50 μL of McCoy's 5A medium (serum-free) containing compound, of the present application was added to a final concentration of 0.01˜2 μM (0.001, 0.01, 0.1, 0.5, 1 or 2 μM), and the plates were incubated for 2 hours (37° C., 5% CO2).
10 μL of the McCoy's 5A medium (serum-free) containing human IL-4 (R&D Systems, Inc) was added to each well to achieve a final concentration of 40 ng/mL, and incubated for 8 hours (37° C., 5% CO2).
as §3, §4, §5, §6, §7, §8
(4) Calculation of Inhibition Rate
Luminescence values that show the degree of activation by IL-4 stimulation were normalized by β-gal values that show transfection efficiency. Using the normalized values, the following calculations were carried out using the luminescence values increased by IL-4 stimulation. Inhibition Rate(%)=[…] E: In the presence of the compound of the present application, increased luminescence value by IL-4 stimulation C: Without the presence of the compound of the present application, increased luminescence value by IL-4 stimulation […]

Compound	Inhibition Rate of NF-κB (%) (NF-κB)	pIC50 (NF-κB)	Inhibition Rate of STAT6 (%) (STAT6)	pIC50 (STAT6)
Cc1cc(NC(=O)c2cc(Cl)ccc2O)ccc1N1CCN(C)CC1.Cl [compound 18]	67 (2 μM) %	6.83	79 (2 μM) %	7.04
Cc1cc(NC(=O)c2cc(Cl)ccc2O)ccc1N1CCNCC1 [compound 23]	11 (2 μM) %	–	24 (2 μM) %	–
CN1CCC(Oc2ccc(NC(=O)c3cc(Cl)ccc3O)cc2F)CC1 [compound 24]	91 (2 μM) %	7.36	93 (2 μM) %	7.43
Cc1cc(NC(=O)c2cc(Cl)ccc2O)ccc1OC1CCN(C)CC1 [compound 25]	60 (2 μM) %	–	80 (2 μM) %	–
O=C(Nc1ccc(N2CCSCC2)c(F)c1)c1cc(Cl)ccc1O [compound 26]	68 (2 μM) %	–	95 (2 μM) %	–
O=C(Nc1ccc(OC2CCNCC2)c(F)c1)c1cc(Cl)ccc1O [compound 31]	92 (2 μM) %	7.91	93 (2 μM) %	8.20
Cl.O=C(Nc1ccc(OC2CCNCC2)c(F)c1)c1cc(Cl)ccc1O [compound 32]	91 (2 μM) %	7.86	92 (2 μM) %	8.23
CN1CCCN(c2ccc(NC(=O)c3cc(Cl)ccc3O)cc2F)CC1 [compound 34]	95 (2 μM) %	8.15	94 (2 μM) %	8.49
O=C(Nc1ccc(N2CCN(C(=O)CCN3CCCCC3)CC2)c(F)c1)c1cc(Cl)ccc1O [compound 35]	24 (2 μM) %	–	26 (2 μM) %	–
CN1CCC(Oc2ccc(NC(=O)c3cc(Cl)ccc3O)cc2F)C1 (stereo not drawn) [compound 38]	64 (2 μM) %	–	77 (2 μM) %	–
O=C1CCN(c2ccc(NC(=O)c3cc(Cl)ccc3O)cc2F)CC1 [compound 39]	16 (2 μM) %	–	46 (2 μM) %	–
NC1CCN(c2ccc(NC(=O)c3cc(Cl)ccc3O)cc2F)C1 (stereo not drawn) [compound 42]	24 (2 μM) %	–	41 (2 μM) %	–
O=C(Nc1ccc(N2CCC(O)CC2)c(F)c1)c1cc(Cl)ccc1O [compound 43]	32 (2 μM) %	–	46 (2 μM) %	–
O=C(Nc1ccc(N2CCCNCC2)c(F)c1)c1cc(Cl)ccc1O [compound 44]	94 (2 μM) %	7.80	94 (2 μM) %	8.12
Cl.O=C(Nc1ccc(OCC2CCNCC2)c(F)c1)c1cc(Cl)ccc1O [compound 45]	68 (2 μM) %	–	76 (2 μM) %	–
Cl.NCC1CCN(c2ccc(NC(=O)c3cc(Cl)ccc3O)cc2F)CC1 [compound 47]	95 (2 μM) %	7.85	96 (2 μM) %	8.10
NC(=O)C1CCCN(c2ccc(NC(=O)c3cc(Cl)ccc3O)cc2F)C1 (stereo not drawn) [compound 48]	40 (2 μM) %	–	42 (2 μM) %	–
Cl.O=C(Nc1ccc(OCC2CCCNC2)c(F)c1)c1cc(Cl)ccc1O (stereo not drawn) [compound 49]	87 (2 μM) %	7.55	84 (2 μM) %	7.83
CN1CCCC(COc2ccc(NC(=O)c3cc(Cl)ccc3O)cc2F)C1 (stereo not drawn) [compound 50]	45 (2 μM) %	–	43 (2 μM) %	–
CN1CCC(COc2ccc(NC(=O)c3cc(Cl)ccc3O)cc2F)CC1 [compound 51]	86 (2 μM) %	7.75	83 (2 μM) %	8.05
O=C(Nc1ccc(N2CCCN(Cc3ccccc3)CC2)c(F)c1)c1cc(Cl)ccc1O [compound 52]	27 (2 μM) %	–	55 (2 μM) %	–
CCN1CCCN(c2ccc(NC(=O)c3cc(Cl)ccc3O)cc2F)CC1 [compound 53]	45 (2 μM) %	–	57 (2 μM) %	–
Cl.NCC1CCCN(c2ccc(NC(=O)c3cc(Cl)ccc3O)cc2F)C1 (stereo not drawn) [compound 54]	84 (2 μM) %	7.36	89 (2 μM) %	7.82
